In assay [1] the target is T1, human adrenergic beta2 receptor (Homo sapiens, UniProt P07550).
T1 construct: purchased Perkin Elmer; host or cells: Sf9 cells (membranes)
The experiment in a line: Human adrenergic β2 receptor binding assay (3H-CGP12177, Sf9 membranes). How it is done: Test 1: Human Adrenergic β1 and β2 Receptor Binding Assays
The study of binding to human adrenergic beta1 and beta2 receptors was performed using commercial membranes prepared from Sf9 cells where they are overexpressed (Perkin Elmer). The membrane suspensions (16 μg/well for beta1 and 5 μg/well for beta2) in assay buffer (75 mM Tris/HCl with 12.5 mM MgCl2 and 2 mM EDTA pH=7.4) were incubated with 0.14 or 0.6 nM of 3H-CGP12177 (Amersham) for beta 1 and beta 2 receptors respectively in a final volume of 250 μl, in GFC Multiscreen 96 well plates (Millipore) previously treated with assay buffer containing 0.3% PEI (Sigma). Non specific binding was measured in the presence of 1 μM propanolol. Incubation was maintained for 60 minutes at room temperature and with gentle shaking. The binding reactions were terminated by filtration and washing with 2.5 volumes of Tris/HCl 50 mM pH=7.4. The affinity of each test compound to the receptor was determined by using ten different concentrations ran in duplicate. IC50s were calculated using Activity Base software from IDBS and the four parameters-log equation.

Assay [2] has as its target T2, human muscarinic M3 receptor (Homo sapiens, UniProt P20309).
T2 construct: purchased Perkin Elmer; host or cells: CHO-K1 cells (membranes)
The experiment in a line: Human muscarinic M3 receptor binding assay ([3H]-NMS, CHO-K1 membranes). How it is done: Test 2: Human Muscarinic M1, M2, M3, M4 and M5 Receptors Binding Assays
The study of binding to human muscarinic M1, M2, M3, M4 and M5 receptors was performed using commercial membranes (Perkin Elmer) prepared from CHO-K1 cells. Radioligand binding experiments were conducted in 96 polypropylene well plates in a total volume of 200 μl. All reagents were dissolved in assay binding buffer (PBS with calcium and magnesium, SIGMA), except compounds that were dissolved in DMSO 100%. Non-specific binding (NSB) was measured in the presence of 1 μM atropine. [3H]-NMS was used as the radioligand at a concentration of 1 nM for M2, M3 and M5 and 0.3 nM for M1 and M4. [3H]-NMS and antagonists were incubated with membranes that express human muscarinic receptors M1, M2, M3, M4 and M5 at concentrations of 8.1, 10, 4.9, 4.5 and 4.9 μg/well, respectively. After an incubation period of two hours with gentle shaking, 150 μl of the reaction mix were transferred to 96 GF/C filter plates (Millipore), previously treated with wash buffer (Tris 50 mM; NaCl 100 mM; pH:7.4), containing 0.05% PEI (Sigma) during one hour. Bound and free [3H]-NMS were separated by rapid vacuum filtration in a manifold from Millipore and washed four times with ice cold wash buffer. After drying 30 min, 30 μl of OPTIPHASE Supermix were added to each well and radioactivity quantified using a Microbeta microplate scintillation counter.
The affinity of each test compound to the receptors was determined by using ten different concentrations ran in duplicate. IC50s were calculated using Activity Base software from IDBS and the four parameters-log equation.

[3] abbreviates: membranes from Sf9 cells overexpressing human beta2, 0.6 nM 3H-CGP12177, read-out: Binding IC50, β2.
The mark [4] stands for this setting: membranes from CHO-K1 cells expressing human M3, 1 nM [3H]-NMS, read-out: Binding IC50, M3.

The values below come from patent US20140303127A1, “NEW CYCLOHEXYLAMINE DERIVATIVES HAVING BETA 2 ADRENERGIC AGONIST AND M3 MUSCARINIC ANTAGONIST ACTIVITIES” (ALMIRALL, S.A., priority 2011, published 2014).

Like-named read-outs stand apart in the source and are kept apart here.

A word on the IC50: it is the concentration needed to halve the response being measured.

T2 sequence (P20309 whole entry): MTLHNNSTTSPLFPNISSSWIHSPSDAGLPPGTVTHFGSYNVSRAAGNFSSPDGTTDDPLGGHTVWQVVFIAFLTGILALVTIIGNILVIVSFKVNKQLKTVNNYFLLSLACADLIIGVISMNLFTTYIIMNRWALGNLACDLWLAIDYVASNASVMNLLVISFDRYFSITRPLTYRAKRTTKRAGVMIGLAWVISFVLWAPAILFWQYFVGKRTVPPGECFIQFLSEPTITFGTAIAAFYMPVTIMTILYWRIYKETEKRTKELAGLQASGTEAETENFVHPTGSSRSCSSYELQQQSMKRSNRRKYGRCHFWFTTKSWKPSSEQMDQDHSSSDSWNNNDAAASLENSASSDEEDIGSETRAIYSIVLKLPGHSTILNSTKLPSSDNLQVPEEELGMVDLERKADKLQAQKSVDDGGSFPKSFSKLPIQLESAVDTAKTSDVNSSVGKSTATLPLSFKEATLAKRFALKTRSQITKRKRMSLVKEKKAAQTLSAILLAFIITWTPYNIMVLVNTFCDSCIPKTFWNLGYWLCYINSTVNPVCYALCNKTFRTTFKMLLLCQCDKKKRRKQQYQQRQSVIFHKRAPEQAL

For the compound “trans-4-[{3-[6-(2-{[(2R)-2-hydroxy-2-(8-hydroxy-2-oxo-1,2-dihydroquinolin-5-yl)ethyl]amino}ethyl)-2-oxo-1,3-benzoxazol-3(2H)-yl]propyl}(methyl)amino]cyclohexyl hydroxy(di-2-thienyl)acetate dihydrofluoride [Example 19]”, the IC50 in assay [1] (setting [3]) amounted to 62 nM; in assay [2] (setting [4]), 0.8 nM.
For “trans-4-{[2-({2-[4-(2-{[(2R)-2-hydroxy-2-(8-hydroxy-2-oxo-1,2-dihydroquinolin-5-yl)ethyl]amino}propyl)phenoxy]acetyl}amino)ethyl]amino}cyclohexyl hydroxy(di-2-thienyl)acetate dihydrofluoride [Example 20]”, in that order: 3.1 nM and 3.6 nM.
For `CN(CCNC(=O)COc1ccc(CNC[C@H](O)c2ccc(O)c3[nH]c(=O)ccc23)cc1)[C@H]1CC[C@H](OC(=O)C(O)(c2cccs2)c2cccs2)CC1` (relative stereo) [Example 8, trans-4-[[2-({[4-({[(2R)-2-hydroxy-2-(8-hydroxy-2-oxo-1,2-dihydroquinolin-5-yl)ethyl]amino}methyl)phenoxy]acetyl}amino)ethyl](methyl)amino]cyclohexyl hydroxy(di-2-thienyl)acetate dihydrofluoride], in that order: 18 nM and 2.2 nM.
In the case of `CN(CCCn1c(=O)[nH]c2cc(CNC[C@H](O)c3ccc(O)c4[nH]c(=O)ccc34)ccc21)[C@H]1CC[C@H](OC(=O)C(O)(c2cccs2)c2cccs2)CC1` [Example 2, trans-4-[{3-[5-({[(2R)-2-hydroxy-2-(8-hydroxy-2-oxo-1,2-dihydroquinolin-5-yl)ethyl]amino}methyl)-2-oxo-2,3-dihydro-1H-benzimidazol-1-yl]propyl}(methyl)amino]cyclohexyl hydroxy(di-2-thienyl)acetate dihydrofluoride], the IC50 in assay [1] came out at 120 nM; in assay [2], 0.4 nM.
Take `CN(CCCn1c(=O)sc2cc(CNC[C@H](O)c3ccc(O)c4[nH]c(=O)ccc34)ccc21)[C@H]1CC[C@H](OC(=O)C(O)(c2cccs2)c2cccs2)CC1` [Example 11, trans-4-[{3-[6-({[(2R)-2-hydroxy-2-(8-hydroxy-2-oxo-1,2-dihydroquinolin-5-yl)ethyl]amino}methyl)-2-oxo-1,3-benzothiazol-3(2H)-yl]propyl}(methyl)amino]cyclohexyl hydroxy(di-2-thienyl)acetate dihydrofluoride]: the half-maximal inhibitory concentration (IC50) in assay [1] (setting [3]) was determined as 4.2 nM; in assay [2] (setting [4]) it was 0.5 nM.
For `CN(CCCc1nc(-c2ccc(CNC[C@H](O)c3ccc(O)c4[nH]c(=O)ccc34)cc2)no1)[C@H]1CC[C@H](OC(=O)C(O)(c2cccs2)c2cccs2)CC1` [Example 5, trans-4-[(3-{3-[4-({[(2R)-2-hydroxy-2-(8-hydroxy-2-oxo-1,2-dihydroquinolin-5-yl)ethyl]amino}methyl)phenyl]-1,2,4-oxadiazol-5-yl}propyl)(methyl)amino]cyclohexyl hydroxy(di-2-thienyl)acetate dihydrofluoride], in that order: 2.7 nM and 0.4 nM.
For `CN(CCCn1c(=O)oc2cc(CNC[C@H](O)c3ccc(O)c4[nH]c(=O)ccc34)ccc21)[C@H]1CC[C@H](OC(=O)C2(C)c3ccccc3Oc3ccccc32)CC1` [Example 15, trans-4-[{3-[6-({[(2R)-2-hydroxy-2-(8-hydroxy-2-oxo-1,2-dihydroquinolin-5-yl)ethyl]amino}methyl)-2-oxo-1,3-benzoxazol-3(2H)-yl]propyl}(methyl)amino]cyclohexyl 9-methyl-9H-xanthene-9-carboxylate dihydrofluoride], in that order: 1.5 nM and 1 nM.
As for `COc1cc(OCC(=O)N(C)CCN(C)[C@H]2CC[C@H](OC(=O)C(O)(c3cccs3)c3cccs3)CC2)c(Cl)cc1CNC[C@H](O)c1ccc(O)c2[nH]c(=O)ccc12` [Example 10, trans-4-[{2-[{[2-chloro-4-({[(2R)-2-hydroxy-2-(8-hydroxy-2-oxo-1,2-dihydroquinolin-5-yl)ethyl]amino}methyl)-5-methoxyphenoxy]acetyl}(methyl)amino]ethyl}(methyl)amino]cyclohexyl hydroxy(di-2-thienyl)acetate dihydrofluoride], the IC50 was 5.7 nM in assay [1] and 0.4 nM in assay [2].
In the case of “trans-4-[{3-[5-({[(2R)-2-hydroxy-2-(5-hydroxy-3-oxo-3,4-dihydro-2H-1,4-benzoxazin-8-yl)ethyl]amino}methyl)-1H-1,2,3-benzotriazol-1-yl]propyl}(methyl)amino]cyclohexyl (2S)-cyclopentyl(hydroxy)-2-thienylacetate dihydrofluoride [Example 18]”, the IC50 in assay [2] (setting [4]) stood at 0.4 nM.
Consider `CN(CCCn1nnc2cc(CNC[C@H](O)c3ccc(O)c4[nH]c(=O)ccc34)ccc21)[C@H]1CC[C@H](OC(=O)[C@](O)(c2cccs2)C2CCCC2)CC1` [Example 17, trans-4-[{3-[5-({[(2R)-2-hydroxy-2-(8-hydroxy-2-oxo-1,2-dihydroquinolin-5-yl)ethyl]amino}methyl)-1H-1,2,3-benzotriazol-1-yl]propyl}(methyl)amino]cyclohexyl (2S)-cyclopentyl(hydroxy)-2-thienylacetate dihydrofluoride], for which the IC50 turned out to be 13 nM in assay [1] (setting [3]) and 0.6 nM in assay [2] (setting [4]).
On to `CN(CCCn1c(=O)oc2cc(CNC[C@H](O)c3ccc(O)c4[nH]c(=O)ccc34)ccc21)[C@H]1CC[C@H](OC(=O)C(O)(c2cccs2)c2cccs2)CC1` [Example 1, trans-4-[{3-[6-({[(2R)-2-hydroxy-2-(8-hydroxy-2-oxo-1,2-dihydroquinolin-5-yl)ethyl]amino}methyl)-2-oxo-1,3-benzoxazol-3(2H)-yl]propyl}(methyl)amino]cyclohexyl hydroxy(di-2-thienyl)acetate, dihydrofluoride], for which the concentration for half-maximal inhibition (IC50) in assay [1] (setting [3]) came to 140 nM; in assay [2] (setting [4]) it was 0.3 nM.
`COc1cc(-c2noc(CCCN(C)[C@H]3CC[C@H](OC(=O)C(O)(c4cccs4)c4cccs4)CC3)n2)c(Cl)cc1CNC[C@H](O)c1ccc(O)c2[nH]c(=O)ccc12` [Example 9, trans-4-[(3-{3-[2-chloro-4-({[(2R)-2-hydroxy-2-(8-hydroxy-2-oxo-1,2-dihydroquinolin-5-yl)ethyl]amino}methyl)-5-methoxyphenyl]-1,2,4-oxadiazol-5-yl}propyl)(methyl)amino]cyclohexyl hydroxy(di-2-thienyl)acetate dihydrofluoride]: the results for the IC50 in assay [1] and in assay [2] were 2.2 nM and 0.2 nM, respectively.
Regarding `CN(CCN(C)[C@H]1CC[C@H](OC(=O)C(O)(c2cccs2)c2cccs2)CC1)C(=O)COc1ccc(CNC[C@H](O)c2ccc(O)c3[nH]c(=O)ccc23)cc1` [Example 6, trans-4-[{2-[{[4-({[(2R)-2-hydroxy-2-(8-hydroxy-2-oxo-1,2-dihydroquinolin-5-yl)ethyl]amino}methyl)phenoxy]acetyl}(methyl)amino]ethyl}(methyl)amino]cycloh exyl hydroxy(di-2-thienyl)acetate dihydrofluoride], the values for the IC50 in assay [1] (setting [3]) and in assay [2] (setting [4]) were 34 nM and 1.4 nM, respectively.
For `CN(CCCn1ccc2cc(CNC[C@H](O)c3ccc(O)c4[nH]c(=O)ccc34)ccc21)[C@H]1CC[C@H](OC(=O)C(O)(c2cccs2)c2cccs2)CC1` (relative stereo) [Example 4, trans-4-[{3-[5-({[(2R)-2-hydroxy-2-(8-hydroxy-2-oxo-1,2-dihydroquinolin-5-yl)ethyl]amino}methyl)-1H-indol-1-yl]propyl}(methyl)amino]cyclohexyl hydroxy(di-2-thienyl)acetate dihydrofluoride], in that order: 220 nM and 0.6 nM.
